Source: ChEMBL document CHEMBL3576793, “Restoration of Chemosensitivity in P-Glycoprotein-Dependent Multidrug-Resistant Cells by Dihydro-β-agarofuran Sesquiterpenes from Celastrus vulcanicola” (J Nat Prod, 2015)

Columns and labels:
[1] = target: T1, ATP-dependent translocase ABCB1 (Homo sapiens, UniProt P08183); experiment: Inhibition of human MDR1 transfected in mouse NIH/3T3 MDR1-G185 cells assessed as daunomycin accumulation at 10 uM after 30 mins by flow cytometry (reference value: 13.2 +/- 1.1%); format: cell-based; design: scale not given: the % may be the effect or the level left; details: nih/3t3 mdr1-g185, 0.5 h
T1 sequence (P08183 whole entry): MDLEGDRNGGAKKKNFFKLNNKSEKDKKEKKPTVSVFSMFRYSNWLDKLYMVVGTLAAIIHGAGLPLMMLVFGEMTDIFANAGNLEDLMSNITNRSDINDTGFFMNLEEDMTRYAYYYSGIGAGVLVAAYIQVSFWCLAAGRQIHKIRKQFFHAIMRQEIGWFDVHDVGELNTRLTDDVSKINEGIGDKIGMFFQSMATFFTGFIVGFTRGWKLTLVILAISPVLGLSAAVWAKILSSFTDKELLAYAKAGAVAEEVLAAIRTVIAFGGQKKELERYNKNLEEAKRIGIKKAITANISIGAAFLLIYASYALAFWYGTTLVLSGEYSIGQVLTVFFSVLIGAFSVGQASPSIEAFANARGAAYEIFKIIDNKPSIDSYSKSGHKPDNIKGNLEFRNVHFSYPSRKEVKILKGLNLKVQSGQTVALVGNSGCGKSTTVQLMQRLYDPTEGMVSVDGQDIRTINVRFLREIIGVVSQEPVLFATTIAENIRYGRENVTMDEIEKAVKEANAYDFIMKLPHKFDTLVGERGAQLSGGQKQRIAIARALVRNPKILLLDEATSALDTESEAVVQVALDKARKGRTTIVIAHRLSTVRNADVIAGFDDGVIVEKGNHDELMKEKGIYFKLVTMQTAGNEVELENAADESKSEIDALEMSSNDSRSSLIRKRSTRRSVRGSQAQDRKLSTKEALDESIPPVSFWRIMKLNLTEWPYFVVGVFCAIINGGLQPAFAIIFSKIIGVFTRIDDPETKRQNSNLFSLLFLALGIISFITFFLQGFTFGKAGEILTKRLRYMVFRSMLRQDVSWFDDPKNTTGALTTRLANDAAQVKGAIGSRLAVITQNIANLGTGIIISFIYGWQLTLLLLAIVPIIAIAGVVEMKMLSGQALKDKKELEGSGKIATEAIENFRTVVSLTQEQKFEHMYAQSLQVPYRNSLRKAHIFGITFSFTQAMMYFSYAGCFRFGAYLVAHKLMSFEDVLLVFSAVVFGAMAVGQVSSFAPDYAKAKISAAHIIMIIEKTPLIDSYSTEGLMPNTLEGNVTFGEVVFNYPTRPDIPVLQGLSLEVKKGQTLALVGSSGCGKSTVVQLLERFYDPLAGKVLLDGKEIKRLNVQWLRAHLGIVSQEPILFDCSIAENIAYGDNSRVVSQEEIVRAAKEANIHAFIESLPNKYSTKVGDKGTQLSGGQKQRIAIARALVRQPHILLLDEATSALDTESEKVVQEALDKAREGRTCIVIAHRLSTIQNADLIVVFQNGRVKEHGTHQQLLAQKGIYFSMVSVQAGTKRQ

[2] = target: T1, ATP-dependent translocase ABCB1; experiment: Inhibition of human MDR1 transfected in mouse NIH/3T3 MDR1-G185 cells assessed as […] daunomycin accumulation after 30 mins by flow cytometry; format: cell-based
[3] = Cytotoxicity against human MDR1 transfected mouse NIH/3T3 MDR1-G185 cells assessed as cell growth at 10 uM after 24 hrs by MTT assay; format: ADME, cell-based, NIH3T3; details: mouse NIH/3T3 MDR1-G185 cells transfected with human MDR1, read-out: Activity
[4] = Cytotoxicity against mouse NIH/3T3 cells assessed as cell growth at 10 uM after 24 hrs by MTT assay; format: cell-based, NIH3T3; details: read-out: Activity

SMILES	Activity [1]	Ki [2]	viability at 24 h, 10 µM [3]	viability at 24 h, 10 µM [4]
CC(=O)O[C@H]1[C@@H](OC(=O)c2ccccc2)[C@]2(C)[C@@H](O)[C@@H](OC(C)=O)C[C@](C)(O)[C@@]23C[C@@H]1C(C)(C)O3	37%	–	–	–
CC(=O)O[C@H]1[C@@H](OC(=O)c2ccccc2)C[C@@H](C)[C@]23OC(C)(C)[C@H](C[C@H](OC(=O)c4ccccc4)[C@]12C)[C@H]3OC(=O)c1cccnc1	80.1%	290 nM	70.2%	75.4%
CC(=O)OC[C@]12[C@@H](OC(=O)c3ccccc3)[C@@H](OC(C)=O)[C@@H]3C[C@]1(OC3(C)C)[C@H](C)C[C@H](OC(C)=O)[C@@H]2OC(C)=O	68.2%	–	–	–
COc1ccc(CCN(C)CCCC(C#N)(c2ccc(OC)c(OC)c2)C(C)C)cc1OC (configuration not stated)	60.3%	–	80.8%	–
CC(=O)OC[C@]12[C@@H](OC(=O)c3ccccc3)[C@@H](OC(C)=O)[C@@H]3[C@@H](OC(C)=O)[C@]1(OC3(C)C)[C@@](C)(O)C[C@H](OC(C)=O)[C@@H]2OC(C)=O	69.9%	–	–	–
CC(=O)O[C@@H]1[C@@H]2[C@@H](OC(=O)c3ccccc3)[C@@]3(OC2(C)C)[C@](C)([C@@H]1OC(=O)c1ccccc1)[C@@H](OC(C)=O)[C@@H](O)C[C@]3(C)O	73.2%	–	–	–
CC(=O)O[C@H]1C[C@](C)(O)[C@]23OC(C)(C)[C@H]([C@H](OC(=O)/C=C/c4ccccc4)[C@H](OC(=O)c4ccccc4)[C@]2(C)[C@H]1OC(C)=O)[C@H]3O	85.1%	420 nM	78.4%	69%
CC(=O)OC[C@]12[C@@H](OC(=O)c3ccccc3)[C@@H](OC(C)=O)[C@@H]3[C@@H](OC(=O)c4ccccc4)[C@]1(OC3(C)C)[C@@](C)(O)C[C@H](OC(C)=O)[C@@H]2OC(C)=O	79.7%	780 nM	71.4%	64.4%
CC(=O)OC[C@]12[C@@H](OC(=O)c3ccccc3)C[C@@H]3[C@@H](OC(C)=O)[C@]1(OC3(C)C)[C@@](C)(O)C[C@H](OC(=O)c1ccccc1)[C@@H]2OC(C)=O	73.6%	–	–	–
CC(=O)OC[C@]12[C@@H](OC(=O)c3ccccc3)[C@@H](OC(C)=O)[C@@H]3[C@@H](OC(C)=O)[C@]1(OC3(C)C)[C@@](C)(O)C[C@H](OC(=O)c1ccccc1)[C@@H]2OC(C)=O	73.8%	–	–	–
CC(=O)OC[C@@]12[C@@H](OC(C)=O)CC[C@](C)(O)[C@]13OC(C)(C)[C@H](C[C@@H]2OC(=O)c1ccccc1)[C@H]3OC(C)=O	72.4%	–	–	–
CC(=O)O[C@H]1CC[C@](C)(O)[C@]23OC(C)(C)[C@H]([C@H](OC(=O)/C=C\c4ccccc4)[C@H](OC(=O)c4ccccc4)[C@]12C)[C@H]3OC(C)=O	82.2%	610 nM	64.3%	51.4%
CC(=O)OC[C@]12[C@@H](OC(=O)c3ccccc3)[C@@H](O)[C@@H]3[C@@H](OC(C)=O)[C@]1(OC3(C)C)[C@@](C)(O)C[C@H](OC(=O)c1ccccc1)[C@@H]2OC(C)=O	73.2%	–	–	–
CC(=O)O[C@H]1[C@@H]2[C@@H](OC(=O)c3ccccc3)[C@@]3(OC2(C)C)[C@@](C)([C@@H](O)[C@@H](OC(C)=O)C[C@]3(C)O)[C@H]1OC(=O)c1ccccc1	73.1%	–	–	–
